From patent US20070191414A1, “Novel isoamido-substituted hydroxy-6-phenylphenanthridines” (Altana Pharma AG, priority 2004, published 2007)

Target: T1, PDE4B2 (Homo sapiens, UniProt Q07343)
T1 construct: made in house; host or cells: SF21 insect cells (baculovirus; virus prepared in SF9 cells)
Experiment: Inhibition of PDE4B2 activity, modified [3H]cAMP SPA (scintillation proximity assay)
Assay type: biochemical
Details: recombinant PDE4B2 expressed in SF21 insect cells; 0.5 μM cAMP; 15 min at 37° C.; read-out: Inhibition of the PDE4 activity, −log IC50(mol/l) (converted)
Procedure: The PDE4B2 (GB no. M97515) was a gift of Prof. M. Conti (Stanford University, USA). It was amplified from the original plasmid (pCMV5) via PCR with primers. Rb9 (5′- […] -3′) and Rb 10 (5′- […] -3′) and cloned into the pCR-Bac vector (Invitrogen, Groningen, NL).
The recombinant baculovirus was prepared by means of homologous recombination in SF9 insect cells. The expression plasmid was cotransfected with Bac-N-Blue (Invitrogen, Groningen, NL) or Baculo-Gold DNA (Pharmingen, Hamburg) using a standard protocol (Pharmingen, Hamburg). Wt virus-free recombinant virus supernatant was selected using plaque assay methods. After that, high-titre virus supernatant was prepared by amplifying 3 times. PDE was expressed in SF21 cells by infecting 2×10^6 cells/ml with an MOI (multiplicity of infection) between 1 and 10 in serum-free SF900 medium (Life Technologies, Paisley, UK). […]
The SF21 insect cells were resuspended, at a concentration of approx. 10^7 cells/ml, in ice-cold (4° C.) homogenization buffer (20 mM Tris, pH 8.2, containing the following additions: 140 mM NaCl, 3.8 mM KCl, 1 mM EGTA, 1 mM MgCl2, 10 mM β-mercaptoethanol, 2 mM benzamidine, 0.4 mM Pefablock, 10 μM leupeptin, 10 μM pepstatin A, 5 μM trypsin inhibitor) and disrupted by ultrasonication. […] The protein content was determined by the Bradford method (BioRad, Munich) using BSA as the standard. […]

T1 sequence (Q07343 1-564 isoform Q07343-2): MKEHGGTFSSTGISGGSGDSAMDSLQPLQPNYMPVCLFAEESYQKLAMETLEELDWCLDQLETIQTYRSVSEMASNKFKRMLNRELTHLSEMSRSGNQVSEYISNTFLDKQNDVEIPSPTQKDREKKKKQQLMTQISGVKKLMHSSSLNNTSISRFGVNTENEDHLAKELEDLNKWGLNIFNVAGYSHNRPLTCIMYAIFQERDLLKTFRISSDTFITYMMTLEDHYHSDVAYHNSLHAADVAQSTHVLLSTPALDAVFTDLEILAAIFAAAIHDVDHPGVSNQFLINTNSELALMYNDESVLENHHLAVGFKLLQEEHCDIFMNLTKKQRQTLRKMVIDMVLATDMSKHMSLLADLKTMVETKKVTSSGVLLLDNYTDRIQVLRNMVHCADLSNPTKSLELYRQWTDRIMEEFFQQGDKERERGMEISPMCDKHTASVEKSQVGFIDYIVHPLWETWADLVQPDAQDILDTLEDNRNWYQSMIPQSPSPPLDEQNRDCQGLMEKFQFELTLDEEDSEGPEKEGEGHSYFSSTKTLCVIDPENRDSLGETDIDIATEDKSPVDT

IC50: 1.48 nM
Compound: CCOc1cc2c(cc1OC)C(c1cccc(NC(=O)CCNC(N)=O)c1)=N[C@@H]1CC[C@@H](O)C[C@H]21 (racemic) [Compound 19, N-[3-((2RS,4aRS,10bRS)-9-Ethoxy-2-hydroxy-8-methoxy-1,2,3,4,4a,10b-hexahydro-phenanthridin-6-yl)-phenyl]-3-ureido-propionamide]
